Measured values as given in patent publication US10287300B2 (Merck Patent GmbH, priority 2012, dated 2019).

Assays:
[1] = target: P70S6K (T412E mutant, Millipore) (Homo sapiens (Human), UniProt P23443, T412E); experiment: P70S6K enzyme assay; type: biochemical; conditions: 24 μM ATP, 90 min at 25° C.
Description: P70S6K inhibitor compounds were diluted and plated in 96 well plates. A reaction mixture including the following components was then added to the compound plate to initiate the enzyme reaction; P70S6K (3 nM, T412E mutant, Millipore) was mixed with 24 μM ATP in an assay buffer containing 100 mM Hepes (pH 7.5), 5 mM MgCl2, 1 mM DTT, 0.015% Brij and 1 μM of the substrate peptide FITC-AHA-AKRRRLSSLRA-OH (derived from the S6 ribosomal protein sequence, FITC=fluorescein isothiocyanate, AHA=6-aminohexanoic acid). The reaction was incubated for 90 min at 25° C., before the addition of 10 mM EDTA to stop the reaction. The proportion of substrate and product (phosphorylated) peptide was analysed on a Caliper Life Sciences Lab Chip 3000, using a pressure of −1.4 psi, and upstream and downstream voltages of −3000 and −700 respectively. Product peaks were resolved before substrate peaks on the resulting chromatograms.

His-AKT (Full Length) = His-AKT (Full Length) (Homo sapiens (Human), UniProt P31749); experiment: AKT enzyme assay; type: biochemical; conditions: 160 uM ATP, 90 min at 25° C.
Sequence of His-AKT (Full Length) (P31749 whole entry): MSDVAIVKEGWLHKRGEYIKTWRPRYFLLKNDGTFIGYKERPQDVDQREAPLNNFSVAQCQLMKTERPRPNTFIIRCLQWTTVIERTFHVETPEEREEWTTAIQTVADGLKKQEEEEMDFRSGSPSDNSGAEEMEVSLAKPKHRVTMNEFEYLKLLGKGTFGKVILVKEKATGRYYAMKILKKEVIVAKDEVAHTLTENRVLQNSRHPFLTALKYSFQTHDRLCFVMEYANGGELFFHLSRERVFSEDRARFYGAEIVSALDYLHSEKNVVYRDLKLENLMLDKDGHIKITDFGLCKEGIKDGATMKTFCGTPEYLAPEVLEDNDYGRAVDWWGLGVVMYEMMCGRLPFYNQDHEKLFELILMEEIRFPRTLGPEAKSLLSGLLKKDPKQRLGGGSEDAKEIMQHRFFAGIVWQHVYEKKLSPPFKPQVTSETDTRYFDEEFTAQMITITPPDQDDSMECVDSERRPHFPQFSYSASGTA
Description: A TTP Mosquito liquid handling instrument was used to place 125 nl of the appropriate concentration of inhibitor in 100% DMSO (for a dose response curve calculation) into each well of a 384-well plate. To this reaction components were added to a final volume of 12.5 μl: • 0.1 ng/μl His-AKT (Full Length), (Invitrogen, Part # P2999, Lot #641228C). • 160 uM ATP (Fluka, 02055) • 1 mM DTT (Sigma, D0632) • 1 mM MgCl2 (Sigma, M1028) • 1 μM substrate peptide (sequence FITC-AHA-GRPRTSSFAEG-NH2), • synthesized by Tufts Peptide Synthesis service. • 100 mM HEPES pH 7.5 (Calbiochem, 391338) • 0.015% Brij-35 (Sigma, B4184)
The reaction was incubated for 90 min at 25° C., and then stopped by the addition of 70 μl of Stop buffer (100 mM HEPES pH 7.5, 0.015% Brij-35, 10 mM EDTA (Sigma, E7889)).
The plate was read on a Caliper LC 3000 in an Off-Chip mobility shift assay format, using the following parameters for a 12-sipper chip: screening pressure −2.3 psi, upstream voltage −500, and downstream voltage −3000. These conditions caused unphosphorylated substrate and phosphorylated product peptide to resolve as separate peaks allowing direct measurement of percentage of conversion of substrate to product. The percent conversion was plotted against concentration of inhibitor to produce a sigmoidal dose response curve, from which an IC50 was calculated.

Sequence of P70S6K (T412E mutant, Millipore) (P23443 whole entry T412E): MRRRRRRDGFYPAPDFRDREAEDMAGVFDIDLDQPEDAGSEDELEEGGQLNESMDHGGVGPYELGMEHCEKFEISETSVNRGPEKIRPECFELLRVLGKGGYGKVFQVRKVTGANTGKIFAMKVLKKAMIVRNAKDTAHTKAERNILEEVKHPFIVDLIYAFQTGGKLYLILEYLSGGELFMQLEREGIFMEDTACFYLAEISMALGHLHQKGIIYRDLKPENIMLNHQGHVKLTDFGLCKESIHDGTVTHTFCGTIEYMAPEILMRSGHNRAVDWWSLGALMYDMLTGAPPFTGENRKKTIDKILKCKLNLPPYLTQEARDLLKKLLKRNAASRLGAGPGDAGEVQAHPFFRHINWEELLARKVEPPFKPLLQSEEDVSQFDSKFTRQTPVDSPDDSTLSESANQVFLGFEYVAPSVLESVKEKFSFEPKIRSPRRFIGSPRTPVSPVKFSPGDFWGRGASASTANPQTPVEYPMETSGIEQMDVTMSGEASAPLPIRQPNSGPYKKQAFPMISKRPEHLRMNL

| IC50 [1] [µM] | IC50 (His-AKT (Full Length)) [µM] | SMILES |
| --- | --- | --- |
| > 1 | > 1 | O=C1CNc2ncnc(N3CCN(C(CN4CCCC4)c4ccc(F)cc4)CC3)c2N1 (stereo not shown) [Compound A29, 4-{4-[1-(4-fluoro-phenyl)-2-(pyrrolidin-yl)-ethyl]-piperazin-1-yl}-7,8-dihydro-5H-pteridin-6-one] |
| > 1 | 0.501 to 1 | O=C1CNc2ncnc(N3CCN(C(CN4CCCCC4)c4ccc(Cl)cc4)CC3)c2N1 (stereo not shown) [Compound A32, 4-{4-[1-(4-chloro-phenyl)-2-(piperidin-yl)-ethyl]-piperazin-1-yl}-7,8-dihydro-5H-pteridin-6-one] |
| > 1 | > 1 | O=C1CNc2ncnc(N3CCN(C(CN4CCCC4)c4ccc(C(F)(F)F)cc4)CC3)c2N1 (stereo not shown) [Compound A34, 4-{4-[2-Pyrrolidin-1-yl-1-(4-trifluoromethyl-phenyl)-ethyl]-piperazin-1-yl}-7,8-dihydro-5H-pteridin-6-one] |
| > 1 | > 1 | CN(C)CC(c1ccccc1F)N1CCN(c2ncnc3c2NC(=O)CN3)CC1 (stereo not shown) [Compound A36, 4-(4-(2-(dimethylamino)-1-(2-fluorophenyl)ethyl)piperazin-1-yl)-7,8-dihydropteridin-6(5H)-one] |
| > 1 | > 1 | O=C1CNc2ncnc(N3CCN(C(CN4CCCCC4)c4ccccc4F)CC3)c2N1 (stereo not shown) [Compound A38, 4-(4-(1-(2-fluorophenyl)-2-(piperidin-1-yl)ethyl)piperazin-1-yl)-7,8-dihydropteridin-6(5H)-one] |
| > 1 | > 1 | CN(C)CC(c1ccccc1Cl)N1CCN(c2ncnc3c2NC(=O)CN3)CC1 (stereo not shown) [Compound A40, 4-(4-(1-(2-chlorophenyl)-2-(dimethylamino)ethyl)piperazin-1-yl)-7,8-dihydropteridin-6(5H)-one] |
| > 1 | > 1 | O=C1CNc2ncnc(N3CCN(C(CN4CCCC4)c4ccccc4Cl)CC3)c2N1 (stereo not shown) [Compound A43, 4-(4-(1-(2-chlorophenyl)-2-(pyrrolidin-1-yl)ethyl)piperazin-1-yl)-7,8-dihydropteridin-6(5H)-one] |
| > 1 | > 1 | Cc1ccccc1C(CN(C)C)N1CCN(c2ncnc3c2NC(=O)CN3)CC1 (stereo not shown) [Compound A45, 4-(4-(2-(dimethylamino)-1-(o-tolyl)ethyl)piperazin-1-yl)-7,8-dihydropteridin-6(5H)-one] |
| > 1 | > 1 | Cc1ccccc1C(CN1CCCCC1)N1CCN(c2ncnc3c2NC(=O)CN3)CC1 (stereo not shown) [Compound A47, 4-(4-(2-(piperidin-1-yl)-1-(o-tolyl)ethyl)piperazin-1-yl)-7,8-dihydropteridin-6(5H)-one] |
| > 1 | > 1 | CN(C)CC(c1ccc(F)c(Cl)c1)N1CCN(c2ncnc3c2NC(=O)CN3)CC1 (stereo not shown) [Compound A54, 4-(4-(1-(3-chloro-4-fluorophenyl)-2-(dimethylamino)ethyl)piperazin-1-yl)-7,8-dihydropteridin-6(5H)-one] |

Continued, compound first:

| SMILES | IC50 [1] [µM] | IC50 (His-AKT (Full Length)) [µM] |
| --- | --- | --- |
| CN(C)CC(c1ccc(C(F)(F)F)cc1)N1CCN(c2ncnc3c2NC(=O)CN3)CC1 (stereo not shown) [Compound A28, 4-{4-[2-dimethylamino-1-(4-trifluoromethyl-phenyl)-ethyl]-piperazin-1-yl}-7,8-dihydro-5H-pteridin-6-one] | 0.501 to 1 | 0.101 to 0.5 |
| O=C1CNc2ncnc(N3CCN(C(CN4CCCC4)c4ccc(Cl)cc4)CC3)c2N1 (stereo not shown) [Compound A30, 4-{4-[1-(4-chloro-phenyl)-2-(pyrrolidin-yl)-ethyl]-piperazin-1-yl}-7,8-dihydro-5H-pteridin-6-one] | 0.501 to 1 | 0.501 to 1 |
| O=C1CNc2ncnc(N3CCN(C(CN4CCCCC4)c4ccc(F)cc4)CC3)c2N1 (stereo not shown) [Compound A31, 4-{4-[1-(4-fluoro-phenyl)-2-(piperidin-yl)-ethyl]-piperazin-1-yl}-7,8-dihydro-5H-pteridin-6-one] | > 1 | > 1 |
| O=C1CNc2ncnc(N3CCN(C(CN4CCCCC4)c4ccc(C(F)(F)F)cc4)CC3)c2N1 (stereo not shown) [Compound A33, 4-{4-[1-(4-trifluoro-phenyl)-2-(piperidin-yl)-ethyl]-piperazin-1-yl}-7,8-dihydro-5H-pteridin-6-one] | > 1 | 0.501 to 1 |
| O=C1CNc2ncnc(N3CCN(C(CN4CCCC4)c4ccccc4F)CC3)c2N1 (stereo not shown) [Compound A35, 4-(4-(1-(2-fluorophenyl)-2-(pyrrolidin-1-yl)ethyl)piperazin-1-yl)-7,8-dihydropteridin-6(5H)-one] | > 1 | > 1 |
| O=C1CNc2ncnc(N3CCN(C(CN4CCC4)c4ccccc4F)CC3)c2N1 (stereo not shown) [Compound A37, 4-(4-(2-(azetidin-1-yl)-1-(2-fluorophenyl)ethyl)piperazin-1-yl)-7,8-dihydropteridin-6(5H)-one] | > 1 | > 1 |
| NCC(c1ccccc1Cl)N1CCN(c2ncnc3c2NC(=O)CN3)CC1 (stereo not shown) [Compound A39, 4-(4-(2-amino-1-(2-chlorophenyl)ethyl)piperazin-1-yl)-7,8-dihydropteridin-6(5H)-one] | > 1 | > 1 |
| CNCC(c1ccccc1Cl)N1CCN(c2ncnc3c2NC(=O)CN3)CC1 (stereo not shown) [Compound A41, 4-(4-(1-(2-chlorophenyl)-2-(methylamino)ethyl)piperazin-1-yl)-7,8-dihydropteridin-6(5H)-one] | > 1 | > 1 |
| O=C1CNc2ncnc(N3CCN(C(CN4CCC4)c4ccccc4Cl)CC3)c2N1 (stereo not shown) [Compound A42, 4-(4-(2-(azetidin-1-yl)-1-(2-chlorophenyl)ethyl)piperazin-1-yl)-7,8-dihydropteridin-6(5H)-one] | > 1 | > 1 |
| O=C1CNc2ncnc(N3CCN(C(CN4CCCCC4)c4ccccc4Cl)CC3)c2N1 (stereo not shown) [Compound A44, 4-(4-(1-(2-chlorophenyl)-2-(piperidin-1-yl)ethyl)piperazin-1-yl)-7,8-dihydropteridin-6(5H)-one] | > 1 | > 1 |
| Cc1ccccc1C(CN1CCCC1)N1CCN(c2ncnc3c2NC(=O)CN3)CC1 (stereo not shown) [Compound A46, 4-(4-(2-(pyrrolidin-1-yl)-1-(o-tolyl)ethyl)piperazin-1-yl)-7,8-dihydropteridin-6(5H)-one] | > 1 | > 1 |
| NCC(c1ccc(F)c(F)c1)N1CCN(c2ncnc3c2NC(=O)CN3)CC1 (stereo not shown) [Compound A48] | > 1 | > 1 |
| CN(C)CC(c1ccc(F)c(F)c1)N1CCN(c2ncnc3c2NC(=O)CN3)CC1 (stereo not shown) [Compound A49, 4-(4-(1-(3,4-difluorophenyl)-2-(dimethylamino)ethyl)piperazin-1-yl)-7,8-dihydropteridin-6(5H)-one] | > 1 | > 1 |
| CNCC(c1ccc(F)c(F)c1)N1CCN(c2ncnc3c2NC(=O)CN3)CC1 (stereo not shown) [Compound A50, 4-(4-(1-(3,4-difluorophenyl)-2-(methylamino)ethyl)piperazin-1-yl)-7,8-dihydropteridin-6(5H)-one] | > 1 | > 1 |
| O=C1CNc2ncnc(N3CCN(C(CN4CCC4)c4ccc(F)c(F)c4)CC3)c2N1 (stereo not shown) [Compound A51, 4-(4-(2-(azetidin-1-yl)-1-(3,4-difluorophenyl)ethyl)piperazin-1-yl)-7,8-dihydropteridin-6(5H)-one] | > 1 | > 1 |
| O=C1CNc2ncnc(N3CCN(C(CN4CCCC4)c4ccc(F)c(F)c4)CC3)c2N1 (stereo not shown) [Compound A52, 4-(4-(1-(3,4-difluorophenyl)-2-(pyrrolidin-1-yl)ethyl)piperazin-1-yl)-7,8-dihydropteridin-6(5H)-one] | > 1 | > 1 |
| O=C1CNc2ncnc(N3CCN(C(CN4CCCCC4)c4ccc(F)c(F)c4)CC3)c2N1 (stereo not shown) [Compound A53, 4-(4-(1-(3,4-difluorophenyl)-2-(piperidin-1-yl)ethyl)piperazin-1-yl)-7,8-dihydropteridin-6(5H)-one] | > 1 | > 1 |
| O=C1CNc2ncnc(N3CCN(C(CN4CCC4)c4ccc(F)c(Cl)c4)CC3)c2N1 (stereo not shown) [Compound A55, 4-(4-(2-(azetidin-1-yl)-1-(3-chloro-4-fluorophenyl)ethyl)piperazin-1-yl)-7,8-dihydropteridin-6(5H)-one] | > 1 | > 1 |
| O=C1CNc2ncnc(N3CCN(C(CN4CCCC4)c4ccc(F)c(Cl)c4)CC3)c2N1 (stereo not shown) [Compound A56, 4-(4-(1-(3-chloro-4-fluorophenyl)-2-(pyrrolidin-1-yl)ethyl)piperazin-1-yl)-7,8-dihydropteridin-6(5H)-one] | > 1 | > 1 |
